Patent US6656907B1, “Method of treating gastric ulcer by administration of epidermal growth factor” (University Technologies International Inc., priority 1995, dated 2003)

Test system: intestinal brush border membrane nutrient absorption
Assay: Nutrient uptake into brush border membrane vesicles after jejunal loop treatment
Format: in vivo, New Zealand White rabbits
Procedure: Subsequent experiments examined the effects of EGF and an inhibitor of the EGF receptor (tyrphostin 51) on intestinal brush border membrane nutrient absorption. Tyrphostin 51is a specific inhibitor of tyrosine kinase, which is a critical element of the EGF intracellular signalling cascade. Studies were performed in New Zealand White rabbits (700-1000 g; approximately 8 weeks of age). Two 10 cm blind jejunal loops separated by a 1 cm segment were tied off starting 5 cm distal to the ligament of Treitz. In separate experiments either EGF (60 ng/ml), EGF+tyrphostin (10 μM), or tyrphostin (10 μM) alone in 1.5 ml of saline vehicle was administered to one of the loops. The other loop received vehicle alone and served as a paired control. After one hour, the loops were removed and the mucosa scraped for preparation of brush border membrane vesicles. Nutrient (D-glucose and L-proline) uptake into brush border membrane vesicles was determined by established techniques. Luminal EGF stimulated a significant increase (p<0.001) in brush border membrane glucose (EGF 16.1±1.0 vs CONTROL 11.5±0.9 nmol/min/mg protein; n=5) and proline (EGF 3.8±0.5 vs CONTROL 2.6±0.3 nmol/min/mg protein; n=5) transport compared to controls. […] Subsequently, a further series of experiments examined the effect of tyrphostin alone on brush border glucose transport. […]

N#CC(C#N)=C(N)/C(C#N)=C/c1cc(O)c(O)c(O)c1 [TYR, tyrphostin 51, reference compound]
effect on EGF-induced increase in glucose uptake (concurrent tyrphostin 10 μM with EGF 60 ng/ml): completely blocked
brush border membrane glucose uptake (tyrphostin 10 μM alone, one hour, n=4, control 10.7±1.0): 8.0±0.8 nmol/min/mg protein
